Experimental findings from US20230089247A1, “NOVEL COMPOUNDS SUITABLE FOR THE TREATMENT OF DYSLIPIDEMIA” (ZYDUS LIFESCIENCES LIMITED, priority 2019, published 2023) are described below.

This experiment has as its target PCSK9 (Homo sapiens, UniProt Q8NBP7). The experiment is described as follows: BODIPY-LDL uptake assay in HepG2 cells. Format: cell-based. Conditions: 5 μg/ml PCSK9, BODIPY-LDL. The method, then: BODIPY-LDL Uptake Assay in HepG2 Cells.
An established assay for PCSK9 inhibition features uptake of fluorescently labeled LDL nanoparticles (BODIPY-LDL) by hepatocytes and uptake of the BODIPY-containing particles is maximized in the absence of PCSK9.
In the LDL uptake assay, HepG2 cells were seeded at a density of 6×10^4 cells/well in a 96-well plate. After 24 h, the test compounds at various concentrations were pre-incubated with 5 μg/ml PCSK9 in 0.2% DMSO for 60 min prior to the addition on to the cells. After 16 h the medium was removed and 1 μg/ml BODIPY-LDL (Invitrogen) in serum free media was added and incubated for 5 h. Then the cells were washed twice with 0.25% BSA in PBS. Then the fluorescence of the cells in PBS was measured using TECAN multimode reader (Excitation: 485 nm and Emission: 520 nm). The readings were taken in triplicate and the final values were normalized with the protein concentration from respective wells. The wells without test compound containing external PCSK9 is considered as zero uptake and the one without PCSK9 was considered as 100% uptake. The percentage increase in LDL uptake for the test compounds were calculated using these values.

PCSK9, sequence (Q8NBP7 153-692): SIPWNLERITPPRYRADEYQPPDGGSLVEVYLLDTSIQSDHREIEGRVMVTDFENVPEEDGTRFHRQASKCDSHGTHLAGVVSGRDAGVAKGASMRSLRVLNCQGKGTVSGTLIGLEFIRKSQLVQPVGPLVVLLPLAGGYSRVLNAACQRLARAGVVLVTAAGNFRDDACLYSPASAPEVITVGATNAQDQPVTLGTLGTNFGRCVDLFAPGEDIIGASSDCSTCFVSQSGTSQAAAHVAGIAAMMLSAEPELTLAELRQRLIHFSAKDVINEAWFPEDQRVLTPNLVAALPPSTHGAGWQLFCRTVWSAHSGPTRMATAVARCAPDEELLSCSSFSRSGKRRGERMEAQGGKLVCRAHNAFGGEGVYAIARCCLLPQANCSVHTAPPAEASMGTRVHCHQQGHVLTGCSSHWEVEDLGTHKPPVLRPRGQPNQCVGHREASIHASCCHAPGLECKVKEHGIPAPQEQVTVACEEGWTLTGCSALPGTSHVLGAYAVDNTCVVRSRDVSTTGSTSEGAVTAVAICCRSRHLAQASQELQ

As to `OC1(c2ccc(-c3nc(-c4ccc(C(F)(F)F)c(F)c4)no3)cc2)COC1` [Example 16, 3-(4-(3-(3-fluoro-4-(trifluoromethyl)phenyl)-1,2,4-oxadiazol-5-yl)phenyl) oxetan-3-ol], the “% increase in LDL Uptake” value (1 μM test compound) worked out at 38%, the “% increase in LDL Uptake” value (10 μM test compound) came to 22% and the “% increase in LDL Uptake” value (30 μM test compound) was found to be 19%.

With `O=C(c1ccc(C2(O)CS(=O)(=O)C2)cc1)N1CCC(c2ccc(C(F)(F)F)cc2)CC1` [Example 62, (4-(3-hydroxy-1,1-dioxidothietan-3-yl)phenyl)(4-(4-(trifluoromethyl)phenyl)piperidin-1-yl)methanone], the “% increase in LDL Uptake” value reads like this: (1 μM test compound) 18%; (10 μM test compound) 10%; (30 μM test compound) 17%.

For the compound `COc1cc(C2CN(c3ccc(C(F)(F)F)cc3)CCN2C(=O)c2ccc(C3(O)COC3)cc2)ccn1` (stereo not drawn) [Example 67, (4-(3-hydroxyoxetan-3-yl)phenyl)(2-(2-methoxypyridin-4-yl)-4-(4-(trifluoromethyl)phenyl)piperazin-1-yl)methanone], the “% increase in LDL Uptake” value by setting is: (1 μM test compound) 26%; (10 μM test compound) 27%; (30 μM test compound) 11%.

Take `O=C(c1ccc(C2(O)COC2)cc1)N1CCC(c2ccc(C(F)(F)F)c(Cl)c2)CC1` [Example 32, (4-(3-chloro-4-(trifluoromethyl)phenyl)piperidin-1-yl)(4-(3-hydroxyoxetan-3-yl)phenyl)methanone]: the “% increase in LDL Uptake” value (1 μM test compound) is on record as 12%, the “% increase in LDL Uptake” value (10 μM test compound) is 30% and the “% increase in LDL Uptake” value (30 μM test compound) was determined as 33%.

Regarding `COC1(c2ccc(C(=O)N3CCC(c4ccc(C(F)(F)F)c(-n5cnc(C)c5)c4)CC3)cc2)COC1` [Example 108, (4-(3-methoxyoxetan-3-yl)phenyl)(4-(3-(4-methyl-1H-imidazol-1-yl)-4-(trifluoromethyl)phenyl)piperidin-1-yl)methanone], the “% increase in LDL Uptake” value by setting is: (1 μM test compound) 9%; (10 μM test compound) 26%; (30 μM test compound) 32%.

On to `CCOC1(c2ccc(C(=O)N3CCC(c4ccc(C(F)(F)F)cc4)CC3)cc2)CSC1` [Example 148, (4-(3-ethoxythietan-3-yl)phenyl)(4-(4-(trifluoromethyl)phenyl)piperidin-1-yl)methanone], for which the “% increase in LDL Uptake” value reads like this: (1 μM test compound) 20%; (10 μM test compound) 3%; (30 μM test compound) 11%.

Consider `O=C(c1ccc(C2(O)CSC2)cc1)N1CC2CN(c3ccc(C(F)(F)F)cc3)CC2C1` (stereo not drawn) [Example 146, (4-(3-hydroxythietan-3-yl)phenyl)(5-(4-(trifluoromethyl)phenyl)hexahydropyrrolo[3,4-c]pyrrol-2(1H)-yl)methanone], for which the “% increase in LDL Uptake” value reads like this: (1 μM test compound) 53%; (10 μM test compound) 212%; (30 μM test compound) 29%.

`O=C(c1ccc(C2(O)COC2)cc1)N1CCc2nc(-c3ccc(C(F)(F)F)cc3)sc2C1` [Example 175, (4-(3-hydroxyoxetan-3-yl)phenyl)(2-(4-(trifluoromethyl)phenyl)-6,7-dihydrothiazolo[5,4-c]pyridin-5(4H)-yl)methanone]: the “% increase in LDL Uptake” value is, setting by setting: (1 μM test compound) 17%; (10 μM test compound) 0%; (30 μM test compound) 0%.

Consider `O=C(c1cccc(C2(O)COC2)c1)N1CCC(c2ccccc2C(F)(F)F)CC1` [Example 122, (3-(3-hydroxyoxetan-3-yl)phenyl)(4-(2-(trifluoromethyl)phenyl)piperidin-1-yl)methanone], for which the “% increase in LDL Uptake” value reads like this: (1 μM test compound) 0%; (10 μM test compound) 16%; (30 μM test compound) 12%.

In the case of `O=C(c1cccc(C2(O)COC2)c1)N1CC2CN(c3ccc(C(F)(F)F)cc3)CC2C1` (stereo not drawn) [Example 55, (3-(3-hydroxyoxetan-3-yl)phenyl)(5-(4-(trifluoromethyl)phenyl)hexahydropyrrolo[3,4-c]pyrrol-2(1H)-yl)methanone], the “% increase in LDL Uptake” value was determined as 82% (1 μM test compound), 320% (10 μM test compound) and 287% (30 μM test compound).

On to `O=C(c1cccc(C2(O)COC2)c1)N1CCC(c2ccc(C(F)(F)F)c(F)c2)CC1` [Example 121, (4-(3-fluoro-4-(trifluoromethyl)phenyl)piperidin-1-yl)(3-(3-hydroxyoxetan-3-yl)phenyl)methanone], for which the “% increase in LDL Uptake” value runs as follows: (1 μM test compound) 0%; (10 μM test compound) 22%; (30 μM test compound) 18%.

As to `COC1(c2ccc(C(=O)N3CCC(c4ccc(C(F)(F)F)c(F)c4)CC3)cc2)COC1` [Example 38, (4-(3-fluoro-4-(trifluoromethyl)phenyl)piperidin-1-yl)(4-(3-methoxyoxetan-3-yl)phenyl)methanone], the “% increase in LDL Uptake” value (1 μM test compound) stood at 43%, the “% increase in LDL Uptake” value (10 μM test compound) came to 51% and the “% increase in LDL Uptake” value (30 μM test compound) amounted to 25%.

`CN1CCN(c2cc(NC(=O)C3CCN(c4ccc(C(F)(F)F)cc4)CC3)cc(C3(O)COC3)c2)CC1` [Example 201, N-(3-(3-hydroxyoxetan-3-yl)-5-(4-methylpiperazin-1-yl)phenyl)-1-(4-(trifluoromethyl)phenyl)piperidine-4-carboxamide]: the “% increase in LDL Uptake” value amounted to 0% (1 μM test compound), 0% (10 μM test compound) and 73% (30 μM test compound).

Regarding `O=S(=O)(c1ccc(C2(O)COC2)cc1)N1CCN(c2ccc(C(F)(F)F)cc2)CC1` [Example 7, 3-(4-((4-(4-(trifluoromethyl)phenyl)piperazin-1-yl)sulfonyl)phenyl) oxetan-3-ol], the “% increase in LDL Uptake” value worked out at 28% (1 μM test compound), 63% (10 μM test compound) and 128% (30 μM test compound).

Consider `COC1(c2ccc(C(=O)N3CCC(c4ccc(C(F)(F)F)cc4)CC3)cc2)CCN(C(C)=O)CC1` [Example 158, 1-(4-methoxy-4-(4-(4-(4-(trifluoromethyl)phenyl)piperidine-1-carbonyl)phenyl)piperidin-1-yl)ethan-1-one], for which the “% increase in LDL Uptake” value is 0% (1 μM test compound), 42% (10 μM test compound) and 0% (30 μM test compound).

With `O=C(c1cccc(C2(O)COC2)c1)N1CC2CN(c3ccc(C(F)(F)F)cn3)CC2C1` (stereo not drawn) [Example 210, (3-(3-hydroxyoxetan-3-yl)phenyl)(5-(5-(trifluoromethyl)pyridin-2-yl)hexahydropyrrolo[3,4-c]pyrrol-2(1H)-yl)methanone], the “% increase in LDL Uptake” value was 0% (1 μM test compound), 107% (10 μM test compound) and 0% (30 μM test compound).

`COC1(c2cccc(C(=O)N3CC4=C(C3)CN(c3ccc(C(F)(F)F)cc3)C4)c2)COC1` [Example 97, (3-(3-methoxyoxetan-3-yl)phenyl)(5-(4-(trifluoromethyl)phenyl)-3,4,5,6-tetrahydropyrrolo[3,4-c]pyrrol-2(1H)-yl)methanone]: the “% increase in LDL Uptake” value reads like this: (1 μM test compound) 0%; (10 μM test compound) 0%; (30 μM test compound) 24%.

`O=C(O)c1cc(C2(O)COC2)ccc1N1CCC(c2ccc(C(F)(F)F)cc2)CC1` [Example 77, 5-(3-hydroxyoxetan-3-yl)-2-(4-(4-(trifluoromethyl)phenyl)piperidin-1-yl)benzoic acid]: the “% increase in LDL Uptake” value (1 μM test compound) amounted to 0%, the “% increase in LDL Uptake” value (10 μM test compound) came to 13% and the “% increase in LDL Uptake” value (30 μM test compound) was determined as 37%.

As for `OC1(c2cc(N3CCOCC3)cc(N3CCC(c4ccc(C(F)(F)F)cc4)CC3)c2)COC1` [Example 84, 3-(3-morpholino-5-(4-(4-(trifluoromethyl)phenyl)piperidin-1-yl)phenyl) oxetan-3-ol], the “% increase in LDL Uptake” value is, setting by setting: (1 μM test compound) 6%; (10 μM test compound) 13%; (30 μM test compound) 17%.

Take `COC1(c2ccc(C(=O)N3CCC(c4ccc(C(F)(F)F)nc4)CC3)cc2)COC1` [Example 213, (4-(3-methoxyoxetan-3-yl)phenyl)(4-(6-(trifluoromethyl)pyridin-3-yl)piperidin-1-yl)methanone]: the “% increase in LDL Uptake” value by setting is: (1 μM test compound) 0%; (10 μM test compound) 0%; (30 μM test compound) 37%.

For `COC1(c2cccc(C(=O)N3CCN(c4ccc(C(F)(F)F)cn4)CC3)c2)COC1` [Example 221, (3-(3-methoxyoxetan-3-yl)phenyl)(4-(5-(trifluoromethyl)pyridin-2-yl)piperazin-1-yl)methanone], the “% increase in LDL Uptake” value runs as follows: (1 μM test compound) 0%; (10 μM test compound) 28%; (30 μM test compound) 66%.

With `Cn1nc(-c2ccc(C(F)(F)F)cc2)c2c1CN(C(=O)c1ccc(C3(O)COC3)cc1)C2` [Example 20, (4-(3-hydroxyoxetan-3-yl)phenyl)(1-methyl-3-(4-(trifluoromethyl)phenyl)-4,6-dihydropyrrolo[3,4-c]pyrazol-5(1H)-yl)methanone], the “% increase in LDL Uptake” value (1 μM test compound) was 0%, the “% increase in LDL Uptake” value (10 μM test compound) is 7% and the “% increase in LDL Uptake” value (30 μM test compound) came out at 18%.
